Each structure is given as a SMILES string. Where “and” joins values, the source holds several entries; their conditions need not be identical. Equal entries are not always repeated. Toxic doses and inconclusive results are not listed.

The experiment deals with P388 leukemia ip, CD2F1 mice, survival T/C. Nature of the experiment: NCI In Vivo Anticancer Drug Screen. Data for tumor model P388 Leukemia (intraperitoneal) in CD2F1 (CDF1) mice. To be noted: endpoint: median survival time, higher = longer survival. In short, it runs like this:
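Mice carrying the transplanted tumor received test compound or vehicle. Survival was recorded in each group, and the value is the treated-group measurement divided by that of the vehicle-treated control group.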

[1] abbreviates: dose: 100.0 mg/kg/injection, schedule: Q01DX005 (ip), vehicle: Klucel (hydroxypropylcellulose) (HPC).
[2] abbreviates: dose: 200.0 mg/kg/injection, schedule: Q01DX005 (ip), vehicle: Klucel (hydroxypropylcellulose) (HPC).
Where [3] appears, read: dose: 50.0 mg/kg/injection, schedule: Q01DX005 (ip), vehicle: Klucel (hydroxypropylcellulose) (HPC).
[4] abbreviates: dose: 50.0 mg/kg/injection, schedule: Q01DX005 (ip), vehicle: saline with Tween-80.
[5] abbreviates: dose: 100.0 mg/kg/injection, schedule: Q01DX005 (ip), vehicle: saline with Tween-80.
The mark [6] stands for this setting: dose: 200.0 mg/kg/injection, schedule: Q01DX005 (ip), vehicle: saline with Tween-80.
Where [7] appears, read: dose: 60.0 mg/kg/injection, schedule: Q01DX005 (ip), vehicle: saline with Tween-80.
Where [8] appears, read: dose: 120.0 mg/kg/injection, schedule: Q01DX005 (ip), vehicle: saline with Tween-80.
The mark [9] stands for this setting: dose: 240.0 mg/kg/injection, schedule: Q01DX005 (ip), vehicle: saline with Tween-80.
The mark [10] stands for this setting: dose: 50.0 mg/kg/injection, schedule: Q04DX003 (ip), vehicle: saline.
Setting [11] is: dose: 100.0 mg/kg/injection, schedule: Q04DX003 (ip), vehicle: saline.
Where [12] appears, read: dose: 400.0 mg/kg/injection, schedule: Q04DX003 (ip), vehicle: saline.
Where [13] appears, read: dose: 100.0 mg/kg/injection, schedule: Q04DX003 (ip), vehicle: saline with Tween-80.
[14] abbreviates: dose: 200.0 mg/kg/injection, schedule: Q04DX003 (ip), vehicle: saline with Tween-80.
Setting [15] is: dose: 400.0 mg/kg/injection, schedule: Q04DX003 (ip), vehicle: saline with Tween-80.
The mark [16] stands for this setting: dose: 100.0 mg/kg/injection, schedule: Q01DX001 (ip), vehicle: Klucel (hydroxypropylcellulose) (HPC).
Where [17] appears, read: dose: 200.0 mg/kg/injection, schedule: Q01DX001 (ip), vehicle: Klucel (hydroxypropylcellulose) (HPC).
The mark [18] stands for this setting: dose: 100.0 mg/kg/injection, schedule: Q01DX009 (ip), vehicle: saline with Tween-80.
[19] abbreviates: dose: 200.0 mg/kg/injection, schedule: Q01DX009 (ip), vehicle: saline with Tween-80.
The mark [20] stands for this setting: dose: 50.0 mg/kg/injection, schedule: Q01DX009 (ip), vehicle: saline.
Where [21] appears, read: dose: 100.0 mg/kg/injection, schedule: Q01DX009 (ip), vehicle: saline.
Where [22] appears, read: dose: 50.0 mg/kg/injection, schedule: Q01DX009 (ip), vehicle: saline with Tween-80.
Where [23] appears, read: dose: 200.0 mg/kg/injection, schedule: Q04DX003 (ip), vehicle: saline.

For the compound `Cc1nnc2c3nccn3ccn12`, the T/C was 106 % of control (dose: 12.5 mg/kg/injection, schedule: Q01DX001 (ip), vehicle: saline with Tween-80); 101 % of control (dose: 25.0 mg/kg/injection, schedule: Q01DX001 (ip), vehicle: saline with Tween-80); 106 % of control (dose: 50.0 mg/kg/injection, schedule: Q01DX001 (ip), vehicle: saline with Tween-80).

On to `O=C(/C=C/c1ccccc1)OCC12OC1C(O)C1C=COC(OC3OC(CO)C(O)C(O)C3O)C12` (stereo not drawn), for which the T/C is 96 % of control (dose: 4.38 mg/kg/injection, schedule: Q01DX005 (ip), vehicle: Klucel (hydroxypropylcellulose) (HPC)); 94 % of control (dose: 8.75 mg/kg/injection, schedule: Q01DX005 (ip), vehicle: Klucel (hydroxypropylcellulose) (HPC)); 97 % of control (dose: 17.5 mg/kg/injection, schedule: Q01DX005 (ip), vehicle: Klucel (hydroxypropylcellulose) (HPC)); 97 % of control (dose: 35.0 mg/kg/injection, schedule: Q01DX005 (ip), vehicle: Klucel (hydroxypropylcellulose) (HPC)); 97 % of control (dose: 70.0 mg/kg/injection, schedule: Q01DX005 (ip), vehicle: Klucel (hydroxypropylcellulose) (HPC)); 95 % of control under setting [1]. The T/C under setting [2] is 103 % of control.

For the compound `Nc1ncnc2c1ncn2CC(O)CBr` (stereo not drawn), the T/C runs as follows: under setting [3], 101 % of control; under setting [1], 104 % of control; under setting [2], 93 % of control.

In the case of `CC12CCC(C(Br)C1=O)C2(C)CBr` (stereo not drawn), the T/C by setting is: under setting [4], 103 % of control; under setting [5], 104 % of control; under setting [6], 92 % of control.

Consider `O=C1C2=C(Nc3cc(Cl)ccc3N2)OC1c1c[nH]c2ccc(COc3ccccc3)cc12` (stereo not drawn), for which the T/C was 93 % of control under setting [7], 93 % of control under setting [8] and 89 % of control under setting [9].

For `C=CCC1C/C=C\COC(=O)CC(C)(C)CC1=O` (stereo not drawn), the T/C was 100 % of control (dose: 25.0 mg/kg/injection, schedule: Q04DX003 (ip), vehicle: saline); 102 % of control under setting [10]; 102 % of control under setting [11]; 99 % of control under setting [12].

Take `CC(C)CCOC(=O)CN(CC(=O)OCCC(C)C)c1ccccc1`: the T/C was 104 % of control under setting [13], 100 % of control under setting [14] and 95 % of control under setting [15].

For `CCCCOP(=O)(O)OCCCC`, the T/C by setting is: under setting [16], 111 % of control; under setting [17], 105 % of control.

Consider `SCC(CS)=C(CS)CS`, for which the T/C was 112 % of control under setting [7], 113 % of control under setting [8] and 106 % of control under setting [9].

On to `CCC(C)(C)C(=O)O`, for which the T/C runs as follows: under setting [18], 100 % of control; under setting [19], 100 % of control.

On to `O=C(Oc1c(Br)c(N(C(=O)c2ccccc2)c2ccccc2)c(OC(=O)c2ccccc2)c(Br)c1N(C(=O)c1ccccc1)c1ccccc1)c1ccccc1`, for which the T/C is 91 % of control under setting [4], 95 % of control under setting [5] and 89 % of control under setting [6].

As to `CCC(O)CN(C)Cc1cc2c(c3ccccc13)CCCC2` (stereo not drawn), the T/C is 106 % of control under setting [20] and 108 % of control under setting [21].

Turning to `O=S(=O)(/N=C1C=C/C(=N\S(=O)(=O)c2ccccc2)C2C/1C2(c1ccccc1)c1ccccc1)c1ccccc1` (stereo not drawn), the T/C (dose: 50.0 mg/kg/injection, schedule: Q01DX001 (ip), vehicle: Klucel (hydroxypropylcellulose) (HPC)) was 98 % of control; the T/C under setting [16] was 97 % of control; the T/C under setting [17] was 99 % of control.

As for `CC(=O)OC1CSS(=O)CC1OC(C)=O` (stereo not drawn), the T/C is, setting by setting: (dose: 100.0 mg/kg/injection, schedule: Q04DX002 (ip), vehicle: saline) 100 % of control; (dose: 200.0 mg/kg/injection, schedule: Q04DX002 (ip), vehicle: saline) 109 % of control.

In the case of `S=P(OC1CC2CCC1C2)(c1ccccc1)c1ccccc1` (stereo not drawn), the T/C reads like this: under setting [22], 100 % of control; under setting [18], 103 % of control; under setting [19], 106 % of control.

On to `C1=CC2C3CSCC3C1C1CC21` (stereo not drawn), for which the T/C reads like this: under setting [11], 105 % of control; under setting [23], 103 % of control; under setting [12], 102 % of control.

On to `Cc1ccc(S(=O)(=O)OC2CCN(C(=O)OCc3ccccc3)CC2)cc1`, for which the T/C is 95 % of control under setting [22], 98 % of control under setting [18] and 98 % of control under setting [19].

With `Cc1ccccc1C(=Nc1ccccc1)Oc1ccccc1[N+](=O)[O-]`, the T/C under setting [11] is 100 % of control, the T/C under setting [23] is 100 % of control and the T/C under setting [12] was 100 % of control.

For `CC(=O)NC(CCS)C(N)=O` (stereo not drawn), the T/C by setting is: under setting [3], 87 % of control; under setting [1], 99 % of control; under setting [2], 97 % of control.

Turning to `C[C@]12C=CC(=O)C=C1CC[C@@H]1[C@@H]2[C@@H](O)C[C@@]2(C)[C@H]1CC[C@]2(O)C(=O)COC(=O)CCC1CCCC1`, the T/C is 104 % of control under setting [13], 100 % of control under setting [14] and 91 % of control under setting [15].

Regarding `Nc1nc(=O)[nH]c([O-])c1N=O.Nc1nc(=O)[nH]c([O-])c1N=O.[Ag+].[Ag+]`, the T/C by setting is: (dose: 15.0 mg/kg/injection, schedule: Q01DX005 (ip), vehicle: saline with Tween-80) 104 % of control and 86 % of control; (dose: 30.0 mg/kg/injection, schedule: Q01DX005 (ip), vehicle: saline with Tween-80) 105 % of control and 89 % of control.

In the case of `C[SiH](C)c1ccc(Cl)cc1`, the T/C runs as follows: under setting [20], 99 % of control; under setting [21], 102 % of control; (dose: 200.0 mg/kg/injection, schedule: Q01DX009 (ip), vehicle: saline) 100 % of control.

As to `NC(=S)N/N=C/c1ncccc1O`, the T/C was 158 % of control (dose: 25.0 mg/kg/injection, schedule: Q01DX009 (ip), vehicle: saline); 155 % of control (dose: 50.0 mg/kg/injection, schedule: Q01DX005 (ip), vehicle: saline); 151 % of control and 158 % of control under setting [20]; 162 % of control (dose: 100.0 mg/kg/injection, schedule: Q01DX005 (ip), vehicle: saline); 167 % of control (dose: 100.0 mg/kg/injection, schedule: Q01DX005 (ip), vehicle: suspension in saline); 180 % of control under setting [21]. For the same compound, the T/C by setting is: (dose: 200.0 mg/kg/injection, schedule: Q01DX005 (ip), vehicle: saline) 157 % of control; (dose: 200.0 mg/kg/injection, schedule: Q01DX005 (ip), vehicle: suspension in saline) 90 % of control.

In the case of `Nc1nc2c(c(=O)[nH]1)[N+]1=CN(c3ccc(C(=O)NC(CCC(=O)O)C(=O)O)cc3)CC1CC2` (stereo not drawn), the T/C was 96 % of control (dose: 50.0 mg/kg/injection, schedule: Q01DX001 (ip), vehicle: saline); 97 % of control under setting [10]; 94 % of control (dose: 100.0 mg/kg/injection, schedule: Q01DX001 (ip), vehicle: saline); 100 % of control under setting [11]; 94 % of control (dose: 200.0 mg/kg/injection, schedule: Q01DX001 (ip), vehicle: saline); 96 % of control under setting [23].

Regarding `O=C(c1ccncc1)N(CO)N(Cn1c(=O)sc2ccccc21)Cn1c(=O)sc2ccccc21`, the T/C is 101 % of control (dose: 6.25 mg/kg/injection, schedule: Q01DX009 (ip), vehicle: Klucel (hydroxypropylcellulose) (HPC)); 94 % of control (dose: 12.5 mg/kg/injection, schedule: Q01DX009 (ip), vehicle: Klucel (hydroxypropylcellulose) (HPC)); 92 % of control (dose: 25.0 mg/kg/injection, schedule: Q01DX009 (ip), vehicle: Klucel (hydroxypropylcellulose) (HPC)).

These data come from PubChem BioAssay AID330 (DTP/NCI, 2004).
